Data taken from ChEMBL document CHEMBL5210121, “Affinity On-target Cellular Literature for EUbOPEN Chemogenomics Library wave 3” (2023).

Columns and labels:
[1] = target: Dual specificity protein kinase CLK1 (Homo sapiens, UniProt P49759); assay: Affinity On-target Cellular interaction (NanoBRET assay (HEK293T cells)) EUB0000724a CLK1; design: mode of action Inhibitor, recommended concentration 1 uM
[2] = target: Histone-lysine N-methyltransferase, H3 lysine-79 specific (Homo sapiens, UniProt Q8TEK3); assay: Affinity On-target Cellular interaction (Western Blot (reduction of H3K79 dimethylation in A431 cells by DOT1L)) EUB0000216b DOT1L; type: cell-based; design: mode of action Inhibitor, recommended concentration 1 uM
[3] = target: Leucine-rich repeat serine/threonine-protein kinase 2 (Homo sapiens, UniProt Q5S007); assay: Affinity On-target Cellular interaction (Cellular assay (LRRK2 phosphorylation)) EUB0000629a LRRK2; design: mode of action Inhibitor, recommended concentration 100 nM
[4] = target: Bromodomain adjacent to zinc finger domain protein 2B (Homo sapiens, UniProt Q9UIF8); assay: Affinity On-target Cellular interaction (Chemoproteomic competition binding assay (endogenous full-length BAZ2B captured on the GSK8573 affinity matrix from HuT-78 cell lysate) ) EUB0000267b BAZ2B; design: mode of action Negative control for GSK2801, recommended concentration 1 uM
Sequence of Bromodomain adjacent to zinc finger domain protein 2B (Q9UIF8 whole entry, the tested form may be a part): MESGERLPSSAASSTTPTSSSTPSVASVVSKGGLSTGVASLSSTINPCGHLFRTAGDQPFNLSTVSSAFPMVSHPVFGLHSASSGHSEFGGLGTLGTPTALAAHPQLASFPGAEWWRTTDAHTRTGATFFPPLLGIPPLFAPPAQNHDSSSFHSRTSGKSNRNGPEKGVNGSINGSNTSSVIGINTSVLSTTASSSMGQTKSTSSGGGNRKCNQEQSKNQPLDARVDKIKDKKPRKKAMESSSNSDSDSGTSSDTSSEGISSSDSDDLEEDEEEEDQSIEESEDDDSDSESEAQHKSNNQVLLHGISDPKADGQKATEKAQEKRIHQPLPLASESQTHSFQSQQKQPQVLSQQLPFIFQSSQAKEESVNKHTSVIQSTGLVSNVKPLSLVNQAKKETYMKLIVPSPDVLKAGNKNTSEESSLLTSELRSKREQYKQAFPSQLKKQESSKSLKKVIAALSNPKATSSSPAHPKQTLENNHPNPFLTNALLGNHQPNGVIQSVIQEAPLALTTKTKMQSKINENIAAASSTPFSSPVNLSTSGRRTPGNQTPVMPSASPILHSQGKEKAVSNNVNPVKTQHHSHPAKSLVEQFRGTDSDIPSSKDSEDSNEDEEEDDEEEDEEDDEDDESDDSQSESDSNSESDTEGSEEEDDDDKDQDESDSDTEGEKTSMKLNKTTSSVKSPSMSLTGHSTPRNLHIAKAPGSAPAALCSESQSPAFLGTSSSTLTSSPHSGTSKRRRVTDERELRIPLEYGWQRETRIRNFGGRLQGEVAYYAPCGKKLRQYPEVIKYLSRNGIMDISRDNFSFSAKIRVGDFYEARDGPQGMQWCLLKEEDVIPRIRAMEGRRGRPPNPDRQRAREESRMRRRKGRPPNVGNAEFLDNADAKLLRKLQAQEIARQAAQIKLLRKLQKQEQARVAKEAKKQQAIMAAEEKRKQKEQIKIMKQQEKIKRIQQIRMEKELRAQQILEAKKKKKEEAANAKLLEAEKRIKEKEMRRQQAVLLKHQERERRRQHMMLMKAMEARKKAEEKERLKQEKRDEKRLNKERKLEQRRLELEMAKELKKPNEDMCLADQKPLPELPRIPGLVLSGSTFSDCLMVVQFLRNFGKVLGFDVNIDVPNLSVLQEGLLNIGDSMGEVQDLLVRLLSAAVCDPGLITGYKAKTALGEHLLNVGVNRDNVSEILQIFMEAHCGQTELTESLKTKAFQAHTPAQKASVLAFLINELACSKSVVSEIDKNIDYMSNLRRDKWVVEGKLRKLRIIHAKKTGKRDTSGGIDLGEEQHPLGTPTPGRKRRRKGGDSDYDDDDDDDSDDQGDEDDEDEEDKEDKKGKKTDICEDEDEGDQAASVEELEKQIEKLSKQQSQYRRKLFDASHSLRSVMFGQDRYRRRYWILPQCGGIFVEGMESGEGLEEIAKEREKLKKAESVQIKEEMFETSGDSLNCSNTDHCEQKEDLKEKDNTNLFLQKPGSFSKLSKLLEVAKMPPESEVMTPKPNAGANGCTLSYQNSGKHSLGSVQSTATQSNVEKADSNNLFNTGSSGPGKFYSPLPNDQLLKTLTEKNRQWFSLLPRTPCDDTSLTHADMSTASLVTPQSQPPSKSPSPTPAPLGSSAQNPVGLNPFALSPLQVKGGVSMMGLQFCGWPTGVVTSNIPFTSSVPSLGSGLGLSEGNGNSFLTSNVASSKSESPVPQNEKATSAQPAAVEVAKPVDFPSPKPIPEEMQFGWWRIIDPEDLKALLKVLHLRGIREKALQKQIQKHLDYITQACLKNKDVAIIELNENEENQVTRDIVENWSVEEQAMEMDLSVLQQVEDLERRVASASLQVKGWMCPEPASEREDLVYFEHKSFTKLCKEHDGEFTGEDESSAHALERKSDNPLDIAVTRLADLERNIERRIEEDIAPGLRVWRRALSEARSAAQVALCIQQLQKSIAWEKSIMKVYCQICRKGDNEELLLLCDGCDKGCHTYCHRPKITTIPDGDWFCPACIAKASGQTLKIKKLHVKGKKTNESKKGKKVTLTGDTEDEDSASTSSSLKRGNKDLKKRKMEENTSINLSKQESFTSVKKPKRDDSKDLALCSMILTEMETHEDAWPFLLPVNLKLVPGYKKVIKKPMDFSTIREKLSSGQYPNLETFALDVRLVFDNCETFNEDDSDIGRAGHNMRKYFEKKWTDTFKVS

[5] = target: Bromodomain adjacent to zinc finger domain protein 2A (Homo sapiens, UniProt Q9UIF9); assay: Affinity On-target Cellular interaction (Chemoproteomic competition binding assay (endogenous full-length BAZ2A from HuT78 extracts)) EUB0000267b BAZ2A; design: mode of action Negative control for GSK2801, recommended concentration 1 uM
[6] = target: Transient receptor potential cation channel subfamily A member 1 (Homo sapiens, UniProt O75762); assay: Affinity On-target Cellular interaction (Electrophysiological assay (inhibition of AITC (allylthiocyanate, 100 µmol/L)-evoked currents in HEK293F cells transiently overexpressing hTRPA1)) EUB0000308b TRPA1; type: cell-based; design: mode of action Antagonist, recommended concentration 1 uM
CREB-binding protein = CREB-binding protein (Homo sapiens, UniProt Q92793); assay: Affinity On-target Cellular interaction (NanoBRET assay (HEK293T cells)) EUB0000195c CREBBP; design: mode of action Inhibitor, recommended concentration 1 uM
Sequence of CREB-binding protein (Q92793 whole entry): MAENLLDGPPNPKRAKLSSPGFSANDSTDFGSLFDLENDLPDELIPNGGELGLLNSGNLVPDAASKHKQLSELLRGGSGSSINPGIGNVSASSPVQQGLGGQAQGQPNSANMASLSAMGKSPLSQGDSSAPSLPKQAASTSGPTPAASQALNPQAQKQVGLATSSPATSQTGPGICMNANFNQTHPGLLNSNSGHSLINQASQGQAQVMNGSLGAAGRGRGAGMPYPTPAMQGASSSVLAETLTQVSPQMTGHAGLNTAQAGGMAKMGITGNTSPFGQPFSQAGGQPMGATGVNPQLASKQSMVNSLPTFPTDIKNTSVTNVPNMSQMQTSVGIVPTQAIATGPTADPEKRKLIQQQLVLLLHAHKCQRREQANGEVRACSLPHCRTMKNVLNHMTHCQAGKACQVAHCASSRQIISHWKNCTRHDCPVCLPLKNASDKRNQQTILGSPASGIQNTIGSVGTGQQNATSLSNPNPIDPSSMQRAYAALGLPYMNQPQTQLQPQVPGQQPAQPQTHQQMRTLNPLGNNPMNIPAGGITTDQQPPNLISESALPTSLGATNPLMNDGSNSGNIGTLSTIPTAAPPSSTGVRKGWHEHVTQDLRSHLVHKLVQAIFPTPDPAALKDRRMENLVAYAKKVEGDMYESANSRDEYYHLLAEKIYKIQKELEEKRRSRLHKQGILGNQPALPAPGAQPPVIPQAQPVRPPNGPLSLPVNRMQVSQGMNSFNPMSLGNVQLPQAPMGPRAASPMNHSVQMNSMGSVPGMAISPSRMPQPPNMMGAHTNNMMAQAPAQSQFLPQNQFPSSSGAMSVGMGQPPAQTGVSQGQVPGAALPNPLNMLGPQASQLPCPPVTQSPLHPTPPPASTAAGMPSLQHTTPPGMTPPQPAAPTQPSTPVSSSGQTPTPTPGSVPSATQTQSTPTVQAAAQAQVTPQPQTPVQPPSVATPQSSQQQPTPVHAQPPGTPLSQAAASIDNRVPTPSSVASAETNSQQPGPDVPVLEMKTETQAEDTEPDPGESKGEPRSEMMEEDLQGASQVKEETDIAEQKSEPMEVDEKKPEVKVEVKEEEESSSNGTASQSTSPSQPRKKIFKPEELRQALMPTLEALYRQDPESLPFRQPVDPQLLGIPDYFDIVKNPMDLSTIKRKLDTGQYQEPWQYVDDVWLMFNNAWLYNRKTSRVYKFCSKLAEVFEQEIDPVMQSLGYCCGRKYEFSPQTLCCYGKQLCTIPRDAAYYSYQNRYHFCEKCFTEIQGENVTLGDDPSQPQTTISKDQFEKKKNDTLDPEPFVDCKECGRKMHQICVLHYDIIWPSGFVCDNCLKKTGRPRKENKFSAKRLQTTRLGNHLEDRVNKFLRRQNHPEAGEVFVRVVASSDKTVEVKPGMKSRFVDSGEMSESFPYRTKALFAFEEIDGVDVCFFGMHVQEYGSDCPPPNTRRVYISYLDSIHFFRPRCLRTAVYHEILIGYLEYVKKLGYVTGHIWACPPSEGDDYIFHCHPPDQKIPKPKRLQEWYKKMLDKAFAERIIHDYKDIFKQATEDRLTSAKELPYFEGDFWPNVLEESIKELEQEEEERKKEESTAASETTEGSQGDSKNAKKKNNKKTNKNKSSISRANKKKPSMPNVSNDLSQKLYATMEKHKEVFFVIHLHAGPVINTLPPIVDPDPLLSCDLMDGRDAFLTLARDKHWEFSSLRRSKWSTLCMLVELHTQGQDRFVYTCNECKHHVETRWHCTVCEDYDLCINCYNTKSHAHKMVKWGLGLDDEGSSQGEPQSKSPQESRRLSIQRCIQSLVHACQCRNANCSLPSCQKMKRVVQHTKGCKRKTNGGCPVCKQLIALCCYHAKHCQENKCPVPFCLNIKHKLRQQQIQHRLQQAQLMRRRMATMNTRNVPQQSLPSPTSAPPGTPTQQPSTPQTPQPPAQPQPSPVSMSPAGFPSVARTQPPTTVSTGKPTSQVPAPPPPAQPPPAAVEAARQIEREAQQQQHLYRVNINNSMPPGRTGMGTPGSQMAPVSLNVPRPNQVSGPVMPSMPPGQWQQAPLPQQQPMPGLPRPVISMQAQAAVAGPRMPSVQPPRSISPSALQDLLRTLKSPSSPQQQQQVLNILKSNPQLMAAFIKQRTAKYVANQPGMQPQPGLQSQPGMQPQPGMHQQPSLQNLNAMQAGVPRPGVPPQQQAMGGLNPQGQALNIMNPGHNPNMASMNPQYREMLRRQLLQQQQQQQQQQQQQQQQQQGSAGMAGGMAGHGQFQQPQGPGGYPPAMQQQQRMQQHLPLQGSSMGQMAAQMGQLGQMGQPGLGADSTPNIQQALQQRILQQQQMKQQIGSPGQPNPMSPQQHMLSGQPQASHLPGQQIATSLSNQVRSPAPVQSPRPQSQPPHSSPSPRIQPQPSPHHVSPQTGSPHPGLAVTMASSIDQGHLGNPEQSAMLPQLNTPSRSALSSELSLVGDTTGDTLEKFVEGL

[7] = target: Chromatin remodeling regulator CECR2 (Homo sapiens, UniProt Q9BXF3); assay: Affinity On-target Cellular interaction (NanoBRET assay (dose-dependent displacement from histone H3.3 in HEK293T cells)) EUB0000201c CECR2; type: cell-based; design: mode of action Inhibitor, recommended concentration 1 uM
[8] = target: Discoidin domain-containing receptor 2 (Homo sapiens, UniProt Q16832); assay: Affinity On-target Cellular interaction (NanoBRET assay (HEK293T cells)) EUB0000156b DDR2; design: mode of action Negative control for DDR-TRK-1 (D2202-1), recommended concentration 1 uM
[9] = target: Epithelial discoidin domain-containing receptor 1 (Homo sapiens, UniProt Q08345); assay: Affinity On-target Cellular interaction (NanoBRET assay (HEK293T cells)) EUB0000156b DDR1; design: mode of action Negative control for DDR-TRK-1 (D2202-1), recommended concentration 1 uM
[10] = target: High affinity nerve growth factor receptor (Homo sapiens, UniProt P04629); assay: Affinity On-target Cellular interaction (NanoBRET assay (HEK293T cells)) EUB0000156b NTRK1; design: mode of action Negative control for DDR-TRK-1 (D2202-1), recommended concentration 1 uM
[11] = target: BDNF/NT-3 growth factors receptor (Homo sapiens, UniProt Q16620); assay: Affinity On-target Cellular interaction (NanoBRET assay (HEK293T cells)) EUB0000156b NTRK2; design: mode of action Negative control for DDR-TRK-1 (D2202-1), recommended concentration 1 uM
[12] = target: Histone acetyltransferase KAT2A (Homo sapiens, UniProt Q92830); assay: Affinity On-target Cellular interaction (Competing pull-down assay (full-length GCN5 from cell lysates using immobilized L-Moses)) EUB0000218c KAT2A; design: mode of action Inhibitor, recommended concentration 1 uM
[13] = target: Histone acetyltransferase KAT2B (Homo sapiens, UniProt Q92831); assay: Affinity On-target Cellular interaction (Competing pull-down assay (full-length PCAF from cell lysates using immobilized L-Moses)) EUB0000218c KAT2B; design: mode of action Inhibitor, recommended concentration 1 uM
[14] = Affinity On-target Cellular interaction (Binding assay in HEK293 cells) EUB0000337aCl P2RY14
[15] = target: RAC-gamma serine/threonine-protein kinase (Homo sapiens, UniProt Q9Y243); assay: Affinity On-target Cellular interaction (NanoBRET assay (HEK293T cells)) EUB0000721a AKT3
[16] = target: RAC-beta serine/threonine-protein kinase (Homo sapiens, UniProt P31751); assay: Affinity On-target Cellular interaction (NanoBRET assay (HEK293T cells)) EUB0000721a AKT2
Sequence of RAC-beta serine/threonine-protein kinase (P31751 whole entry): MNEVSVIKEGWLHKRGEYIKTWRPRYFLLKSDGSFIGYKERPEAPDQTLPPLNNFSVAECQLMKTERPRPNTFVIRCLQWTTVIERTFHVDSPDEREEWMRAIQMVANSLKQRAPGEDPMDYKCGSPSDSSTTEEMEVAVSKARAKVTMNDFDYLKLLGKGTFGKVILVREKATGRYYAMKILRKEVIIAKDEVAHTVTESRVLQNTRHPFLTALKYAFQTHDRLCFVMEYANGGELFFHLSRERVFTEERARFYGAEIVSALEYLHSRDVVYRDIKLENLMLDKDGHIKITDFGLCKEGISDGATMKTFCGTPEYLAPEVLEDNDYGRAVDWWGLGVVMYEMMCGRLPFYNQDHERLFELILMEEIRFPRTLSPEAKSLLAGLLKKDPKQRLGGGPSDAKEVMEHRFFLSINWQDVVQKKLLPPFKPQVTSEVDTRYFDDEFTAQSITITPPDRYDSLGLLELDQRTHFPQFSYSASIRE

[17] = target: RAC-alpha serine/threonine-protein kinase (Homo sapiens, UniProt P31749); assay: Affinity On-target Cellular interaction (NanoBRET assay (HEK293T cells)) EUB0000721a AKT1
[18] = target: T1, Nucleosome-remodeling factor subunit BPTF (Homo sapiens, UniProt Q12830); assay: Affinity On-target Cellular interaction (NanoBRET assay (HEK293T cells)) EUB0000254b BPTF; design: mode of action Negative control for NVS-BPTF-1, recommended concentration 1 uM
[19] = target: T1, Nucleosome-remodeling factor subunit BPTF
[20] = target: Histone-lysine N-methyltransferase SETD7 (Homo sapiens, UniProt Q8WTS6); assay: Affinity On-target Cellular interaction (Immunoblot (increase in nuclear YAP levels by treatment of MEFs (from Setd7+/+ mice) with 10 µM PFI-2)) EUB0000196bCl SETD7; design: mode of action Inhibitor, recommended concentration 1 uM
[21] = target: Tyrosine-protein kinase JAK3 (Homo sapiens, UniProt P52333); assay: Affinity On-target Cellular interaction (NanoBRET assay (HEK293T cells)) EUB0000007b JAK3; design: mode of action Negative control for FM-381, recommended concentration 100 nM
[22] = target: P2Y purinoceptor 14 (Homo sapiens) (UniProt Q15391); conditions: Affinity On-target Cellular Source Knowledge https://pubs.acs.org/doi/10.1021/jm200400m,https://pubs.acs.org/doi/10.1021/ml300280g, https://www.sgc-ffm.uni-frankfurt.de/#!specificprobeoverview/MSD-M1PAM

## COc1cc(Nc2nccc(-c3cnn4nc(OC)ccc34)n2)cc(C(F)(F)F)c1
[1]
  IC50: 165 nM

## CC(C)N(CCCNC(=O)Nc1ccc(C(C)(C)C)cc1)C[C@H]1O[C@@H](n2cc(Br)c3c(N)ncnc32)[C@H](O)[C@@H]1O
[2]
  IC50: 2.6 nM

## CNc1nc(Nc2cnn([C@H]3CCN(C4COC4)C[C@@H]3F)c2Cl)ncc1C(F)(F)F
[3]
  IC50: 19 nM

## CCCOc1ccn2c(C(C)=O)cc(-c3cccc(OC)c3)c2c1
[4]
  Kd: > 10 µM
[5]
  Kd: > 10 µM

## Clc1cccc(-c2nnnn2Cc2cccnc2)c1Cl
[6]
  IC50: 51 nM

## CCC(=O)N1CCOc2c(cc(-c3ccc(OC)c(OC)c3)cc2OC[C@H]2CCCN(C)C2)C1
CREB-binding protein
  IC50: 600 nM

## CCCS(=O)(=O)c1nc(NC2CC2)cc(-c2ccc3c(ccn3C3CC(C)(C)NC(C)(C)C3)c2)n1
[7]
  IC50: 255 nM

## CN1CCN(Cc2cc(NC(=O)c3ccc4c(c3)CN(c3ccccc3)CC4)cc(C(F)(F)F)c2)CC1
[8]
  IC50: 8.72 µM
[9]
  IC50: 26.6 µM
[10]
  IC50: 19.3 µM
[11]
  IC50: 6.8 µM

## Cc1nnc2c3ccccc3c(N[C@@H](C)[C@H](c3ccccc3)N(C)C)nn12
[12]
  IC50: 220 nM
[13]
  IC50: 660 nM

## Cc1c(C(=O)O)cc(-c2ccc(C3CCNCC3)cc2)c2ccc(-c3ccc(C(F)(F)F)cc3)cc12
[14]
  Ki: 8.61 µM

## C=CC(=O)Nc1ccc2[nH]c(=O)n(C3CCN(C(=O)c4ccc(-c5nc6cc[nH]c(=O)c6cc5-c5ccccc5)cc4)CC3)c2c1
[15]
  IC50: 18 µM
[16]
  IC50: 8.3 µM
[17]
  IC50: 1900 nM

## Cc1c(Nc2ccc(S(=O)(=O)N3CCN(C)CC3)cc2F)nc2ccc(Nc3cnn(C4CC4)c3)cn2c1=O
[18]
  IC50: > 10 µM

## Cc1c(Nc2ccc(S(=O)(=O)N3CCN(C)CC3)cc2F)nc2ccc(-c3cnn(C4CC4)c3)cn2c1=O
[19]
  IC50: 16 nM

## O=C([C@@H](Cc1cccc(C(F)(F)F)c1)NS(=O)(=O)c1cc(F)c2c(c1)CCNC2)N1CCCC1
[20]
  EC50: < 10 µM

## CN(C)C(=O)/C(C#N)=C/c1ccc(-c2nc3cnc4c(ccn4C)c3n2C2CCCCC2)o1
[21]
  IC50: > 10 µM

## O=C(O)c1cc(-c2ccc(C3CCNCC3)cc2)c2ccc(-c3ccc(C(F)(F)F)cc3)cc2c1
[22]
  Potentiation inflection point: > 10 µM
